Reference: PMC5365662, “A Short Double-Stapled Peptide Inhibits Respiratory Syncytial Virus Entry and Spreading” (Antimicrobial Agents and Chemotherapy, 2017)
Bridge positions count the residues as written; N and C are the ends. Square brackets hold non-standard residues; d marks the D form. Peptide text beside a SMILES is read from it. R5 = C=CCCC[C@@](C)(N)C(=O)O; S5 = C=CCCC[C@](C)(N)C(=O)O

Columns and labels:
rHRSV-Luc = assay: RSV infection of mice, intranasal treatment, in vivo luminescence; conditions: BALB/c, n = 4
Experimental: In order to track the infection, we used the recombinant virus rHRSV-Luc, which was previously shown to allow in vivo imaging studies of RSV replication and spreading and constitutes a powerful and convenient tool for the evaluation of drug efficiency against RSV in the mouse model ([24]). […] Mice were anesthetized at day 3 p.i. and observed alive using the IVIS imaging system 5 min after i.n. injection of D-luciferin. […] At day 3 p.i., a second dose of the peptide was administered to the mice, and the bioluminescence was measured at day 5 p.i. […]
Female BALB/c mice were purchased from the Centre d'Elevage R. Janvier (Le Genest Saint-Isle, France) and were used at 8 weeks of age. […] Luminescence measurement was then performed at day 5 p.i.
Mice were anesthetized, and luminescence was measured 5 min following i.n. injection of 50 μl of PBS containing 0.75 mg kg^−1 of body weight D-luciferin (Sigma). Photon emission of mock-infected and rHRSV-Luc-infected mice was measured using the IVIS 200 imaging system (Xenogen Corp.). […] Digital false-color photon emission images of mice were generated, and photons were counted within a constant region of interest corresponding to the surface of the chest encompassing the whole-airway area. Photon emission was measured as radiance in photons per second per square centimeter per steradian (p s^−1 cm^−2 sr^−1).

[1] = Proteolytic stability assay, chymotrypsin; assay type: in vitro ADME; conditions: chymotrypsin (isolated protease); 10 μl peptide 0.29 mM in 990 μl 100 mM Tris-HCl pH 8.0, 10 mM CaCl2; 10 μl chymotrypsin 50 μg/ml; 25°C; LC-MS of intact peptide, exponential decay fit; 3 experiments
Experimental: This is an important parameter to assess for the development of peptide therapeutics. Peptides 4bb, 4ca, and 4a, and the unstapled analog peptide 4, as well as both SAH-RSVFBD isomers, were treated with chymotrypsin or trypsin, and the samples were analyzed by LC/MS to quantify the reaction products over time. […] In comparison, both SAH-RSVFBD isomers were more susceptible to proteolytic degradation, with half-lives of approximately 7 h and 5 min against chymotrypsin and trypsin, respectively.
In vitro proteolytic degradation was measured via LC-MS using an Agilent Infinity 1280 UHPLC system coupled to an Agilent quadrupole time of flight (QTOF) 6530 instrument with an Agilent Jet Stream electrospray ionization (AJS ESI) source (all from Agilent Technologies, Waldbronn, Germany). Five microliters of digested sample was injected onto a C18 column (Zorbax Eclipse Plus RRHD, 1.8 μm, 2.1 by 100 mm; Agilent Technologies, Waldbronn, Germany) equilibrated with solvent A (5% acetonitrile, 0.2% formic acid) and eluted with a flow rate of 0.4 ml/min over a 5 to 95% gradient of solvent B (95% acetonitrile, 0.2% formic acid) in 5 min, followed by 1.5 min at 95% and 0.5 min posttime. The AJS ESI source was operated with a capillary voltage of 4,000 V and a nozzle voltage of 600 V with a drying gas temperature of 325°C and flow rate of 10 liters/min, nebulizing gas pressure of 20 lb/in^2, and a sheath gas temperature of 300°C and flow rate of 11 liters/min. Mass spectra were acquired in the positive-ion mode from 100 to 3,200 m/z at a rate of 1 scan per second in extended dynamic range (2 GHz) mode. The fragmentor, skimmer, and octopole RF voltages were set to 200, 60, and 750 V, respectively. Data were acquired and analyzed with the Agilent MassHunter Workstation (version B.05).
Peptide digestion was performed as follows: 10 μl of peptide at 0.29 mM in 50:50 acetonitrile-water was dissolved in 990 μl 100 mM Tris-HCl (pH 8.0) with 10 mM CaCl2. Following measurement of the undigested (t0) sample, 10 μl of chymotrypsin at 50 μg/ml in 100 mM Tris-HCl (pH 8.0) with 10 mM CaCl2 was added, and the sample was vortexed and placed immediately in the autosampler, set to 25°C. The level of intact peptide was quantified by serial injection over time. Integration of the intact peptide compound chromatogram was performed using the Agilent Molecular Feature Extraction (MFE) algorithm. The value of the fit at t = 0 min was used to calculate the percentage of the intact peptide at each point as follows: Percent intact (t) = [Vol (t)/Volt0] × 100, where Vol is the total volume calculated using Find Compounds by Molecular Feature and Volt0 is the value of the fit at time t = 0. A plot of the intact peptide MFE peak area over time gave an exponential decay curve, from which the half-life was determined using MatLab […].

CC[C@H](C)[C@@H]1NC(=O)[C@H](Cc2ccccc2)NC(=O)[C@@](C)(NC(=O)[C@H](CC(C)C)NC(=O)[C@H](CO)NC(=O)[C@]2(C)CCCC=CCCC[C@@](C)(NC(=O)[C@H](CCC(=O)O)NC(C)=O)C(=O)N[C@@H]([C@@H](C)CC)C(=O)N[C@@H](CC(N)=O)C(=O)N2)CCCC=CCCC[C@@](C)(C(=O)N[C@@H](CO)C(=O)N[C@@H](CC(=O)O)C(=O)N[C@@H](CCC(=O)O)C(=O)N[C@@H](CC(C)C)C(=O)N[C@@H](CC(C)C)C(=O)N[C@@H](Cc2c[nH]cn2)C(=O)N[C@@H](CC(N)=O)C(=O)N[C@H](C(N)=O)C(C)C)NC(=O)[C@H](CCCNC(=N)N)NC1=O [Peptide 4ca] (Ac-E[R5]IN[S5]SL[S5]FIR[S5]SDELLHNV-NH2; staple 2-5, 8-12)
decrease of viral infection versus untreated mice (bioluminescence) (rHRSV-Luc; i.n. 50 μl at 50 μM in PBS at day 0 (10 min before rHRSV-Luc 5 × 10^4 PFU) and day 3, day 5 p.i.): 3 fold | bioluminescence in snout and lungs versus control mice (rHRSV-Luc; i.n. 50 μl at 50 μM in PBS, rHRSV-Luc 5 × 10^4 PFU, day 3 p.i.): clearly reduced | half-life at 2.9 µM [1]: 7.5 days
